Experimental data: PubChem BioAssay AID1645864 (Buhrlage Lab, Dana-Farber Cancer Institute and Novartis …, 2021)
The source made the active and inactive calls.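 Rule for the calls: active = maximal inhibition of USP17 at or above 30% in the confirmation dose-response, a value not among the printed readouts; inactive = the rest.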

Target: Ubiquitin carboxyl-terminal hydrolase 17-like protein 5 (Homo sapiens) (UniProt A8MUK1)
Experiment: ubiquitin-specific protease 17 inhibitors, concentration series, biochemical, verification of primary actives (AID 1645864)
Conditions: purified USP17, ubiquitin-rhodamine cleavage fluorescence, 3 h

Chain of Ubiquitin carboxyl-terminal hydrolase 17-like protein 5 (Homo sapiens) (A8MUK1 whole entry, looked up): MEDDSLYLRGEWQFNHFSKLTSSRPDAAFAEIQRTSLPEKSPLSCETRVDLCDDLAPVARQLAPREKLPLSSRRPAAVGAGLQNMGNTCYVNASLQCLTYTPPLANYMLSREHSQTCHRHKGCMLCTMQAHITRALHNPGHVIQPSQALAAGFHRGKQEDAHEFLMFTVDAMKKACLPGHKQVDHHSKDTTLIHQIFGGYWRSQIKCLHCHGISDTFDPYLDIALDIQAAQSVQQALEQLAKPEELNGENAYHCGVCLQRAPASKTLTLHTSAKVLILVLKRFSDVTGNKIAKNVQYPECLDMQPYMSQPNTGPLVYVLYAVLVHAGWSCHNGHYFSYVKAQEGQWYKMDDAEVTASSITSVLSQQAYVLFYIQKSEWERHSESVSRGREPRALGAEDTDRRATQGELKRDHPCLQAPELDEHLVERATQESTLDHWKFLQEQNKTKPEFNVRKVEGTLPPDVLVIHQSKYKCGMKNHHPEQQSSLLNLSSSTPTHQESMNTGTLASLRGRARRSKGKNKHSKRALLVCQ

| Compound | IC50 |
| --- | --- |
| Cc1ccc(NC(=O)c2ccc3c(c2)N(S(C)(=O)=O)CC3)cc1 | 38.3 µM |
| Cc1cc(C)nc(-n2nc(C)c3c2NC(=O)CSC3c2ccc(F)cc2F)n1 (stereo unspecified) | 37.5 µM |
| Cc1ccc(NC(=O)/C=C/c2cccc(C(F)(F)F)c2)c(O)c1 | 8.3 µM |
| Cc1ccccc1OCCSc1nc2ccccc2n1CC(=O)NC1CC1 | 22.8 µM |
| COCCNC(=O)c1cc(-c2cn(-c3ccccn3)c(C)n2)n2ccccc12 | > 50 µM (inactive) |
| CC1=C(C)C(N(c2ccccc2)c2ccccc2)N(CCC(C)C)C1=O (stereo unspecified) | 19.2 µM |
| Cn1c(=O)c(C(=O)CN2CCN(c3ccc(O)cc3)CC2)c(N)n(Cc2ccccc2)c1=O | 39.5 µM |
| O=C1COc2ccc(NC(=O)c3cnn(Cc4ccccc4)c3)cc2N1 | 39.4 µM |
| Cc1ccc2[nH]cc(S(=O)(=O)c3ccc(C)c(F)c3)c(=O)c2c1 | 42.8 µM |
| COC(=O)c1cc(C)sc1NC(=O)c1cccc(OC)c1OC | > 50 µM (inactive) |
| Cc1cccc(NC(=O)Cn2c(-c3cnccn3)nc(C)c(C)c2=O)c1C | > 50 µM (inactive) |
| Cc1ccn(-c2ccc(NC(=O)c3ccccc3Sc3ccccc3C#N)cc2)n1 | 44.7 µM |
| CCOC(=O)c1ccc(NC(=O)Cn2c(=O)n(CC(=O)NCCc3ccc(OC)c(OC)c3)c(=O)c3sccc32)cc1 | 2.51 µM |
| CCOc1ccc(NC(=O)c2cc(-c3ccccc3)c(N3CCOCC3)s2)cc1 | 19.9 µM |
| COc1cc2c(cc1OC)-c1cc(Nc3ccc(Br)cc3)nc(=O)n1CC2 | 1.65 µM |
| O=C(NCc1ccc(Br)cc1)c1ccc(-c2cccnc2)nc1 | 37.5 µM |
| Cc1ccc(-n2cc(C(=O)NCc3cccnc3)nn2)cc1C | 22.3 µM |
| Cc1nc(-c2ccc(C(=O)NCc3ccc(F)cc3)cc2)cs1 | 48.1 µM |
| CCN(c1ccc(NC(=O)CSc2nnc(-c3ccccc3)n2-c2ccc(OC)c(OC)c2)cc1)C(C)C | 5.06 µM |
| CCCCCCCc1cc(O)cc(OC(=O)c2c(CCCCCCC)cc(O)cc2O[C@H]2O[C@H](C(O)CO)[C@@H](O)[C@@H]2O)c1 (stereo partly specified) | 34.1 µM |
| COc1cc(OC)cc(-n2c(=O)c3sccc3n(CC(=O)c3ccc(F)cc3)c2=O)c1 | 26.1 µM |
| O=C(Nc1ccccc1)C1CCCN(C(=O)c2cc3ccccc3[nH]2)C1 (stereo unspecified) | 38.7 µM |
| Cc1cccc(-n2cnc(C(=O)NCc3ccc(F)cc3)c2)n1 | 22.8 µM |
| COC(=O)c1ccc(Cn2cnc3ccc(Br)cc3c2=O)o1 | > 50 µM (inactive) |
| NC(=O)c1nnn(-c2ccc(NC(=O)c3ccc(F)c(F)c3)cc2)n1 | 10.6 µM |
| CCC(C(=O)NCc1ccncc1)N(c1cccc(Cl)c1)S(C)(=O)=O (stereo unspecified) | > 50 µM (inactive) |

| Compound | IC50 |
| --- | --- |
| CC(=O)c1cccc(NC(=O)c2ccc3[nH]c4c(c3c2)CC(C)CC4)c1 (stereo unspecified) | > 50 µM (inactive) |
| c1ccc(-c2ccc(NCc3ccc4c(c3)OCO4)nn2)cc1 | 7.45 µM |
| Cc1ccc2[nH]c3c(=O)n(CC4CCCO4)cnc3c2c1 (stereo unspecified) | 21.5 µM |
| CC(C)(C)C(=O)[C@@H]1[C@@H](C(=O)c2ccc3c(c2)OCO3)[C@@]2(C(=O)Nc3ccccc32)[C@H]2c3ccccc3C=CN12 | 31.3 µM |
| Cc1cccc(-c2noc(CCn3c(=O)[nH]c4ccccc4c3=O)n2)c1 | 34.5 µM |
| O=C(CN1C(=O)C2CCCC2=Nc2ccccc21)Nc1ccc(F)cc1F (stereo unspecified) | 32.2 µM |
| COc1ccc(NC(=O)c2sc(N3CCOCC3)nc2-c2ccccc2)c(OC)c1 | 27.7 µM |
| Cc1ccc(-n2c(-c3ccccc3)cn3c4c(=O)[nH]c(=O)n(C)c4nc23)cc1C | 0.289 µM |
| CN(C)C1CCN(C(=O)c2cc(-c3ccn(-c4ccccc4)n3)n3ccccc23)CC1 | > 50 µM (inactive) |
| Fc1cccc(-n2cc(-c3noc(-c4ccccn4)n3)nn2)c1 | 30.1 µM |
| Cc1nn(-c2ccc([N+](=O)[O-])cc2)c(C)c1-c1nc2ccccc2[nH]1 | 33 µM |
| CCN(CCCNC(=O)c1ccc(Cn2c(=O)[nH]c3ccccc3c2=O)cc1)c1ccccc1 | 16 µM |
| O=C(Cc1cc(-c2ccc(F)cc2)on1)NCc1ccccc1 | 15.9 µM |
| Cc1cc(=O)n(CC(=O)Nc2ccccc2C)c(Nc2ccc(F)cc2)n1 | 26.8 µM |
| Oc1sc(C=Nc2cc(Cl)ccc2Cl)c2ccccc12 | 1.46 µM |
| Cc1oc(-c2ccc(C(=O)NCC3COCCO3)cc2)nc1CN1CCc2ccccc21 (stereo unspecified) | > 50 µM (inactive) |
| O=C(O)c1nccnc1C(=O)N1CCc2ccccc2C1 | > 50 µM (inactive) |
| Cc1ccc(C(=O)NCC(=O)Nc2nc3ccccc3[nH]2)c(C)c1 | 30.7 µM |
| CC1CCCN(CCCNC(=O)c2ccc(N3CCc4ccccc43)s2)C1 (stereo unspecified) | > 50 µM (inactive) |
| Cc1ccnc(NC(=O)c2ccn(COc3ccc(Cl)cc3)n2)c1 | 24.2 µM |
| Cc1ccccc1NC(=O)c1ccn(COc2ccc(Cl)cc2)n1 | > 50 µM (inactive) |
| COc1cccc(-c2nc3cnccn3c2NCc2ccc3c(c2)OCO3)c1 | > 50 µM (inactive) |
| COc1cccc(N2CCN(c3ccc4nnc(CCC(=O)N5CCc6ccccc6C5)n4n3)CC2)c1 | 28.2 µM |
| O=C(Nc1ccc(N2CCOCC2)cc1)c1cc(=O)[nH]c2ccccc12 | 31 µM |
| COc1ccc(-c2nc(SCC(=O)Nc3ccc(C(C)=O)cc3)n[nH]2)cc1 | 10.8 µM |
| CN(C(=O)CSc1nnc(-c2cc3ccccc3n2C)o1)c1ccccc1 | > 50 µM (inactive) |

| Compound | IC50 |
| --- | --- |
| O=C(Nc1ccc(F)cc1F)NC1CCN(c2ccccc2)C1=O (stereo unspecified) | 18.3 µM |
| CCc1ccc(C2c3c(oc4ccccc4c3=O)C(=O)N2c2nncs2)cc1 (stereo unspecified) | > 50 µM (inactive) |
| CCS(=O)(=O)N1CCc2cc(C(=O)Nc3ccc4c(c3)OCCO4)ccc21 | > 50 µM (inactive) |
| Cc1ccc(NC(=O)Cn2c(Nc3cccc(C)c3)nc(C)cc2=O)cc1 | 42.1 µM |
| CCC(=O)Nc1nc2cc(NC(=O)Nc3cc(C)cc(C)c3)ccc2s1 | 3.21 µM |
| O=C(COc1nc2ccccc2nc1N1CCOCC1)Nc1cccc(S(=O)(=O)N2CCCCC2)c1 | > 50 µM (inactive) |
| CC(C)(C)C(=O)NC(c1ccccc1)c1nnc(N2CCOCC2)o1 (stereo unspecified) | > 50 µM (inactive) |
| Cc1nnc(C(=O)Nc2ccc(C(=O)NCc3ccccc3C)cc2)s1 | 27.2 µM |
| COc1ccc(OC)c(-n2c(SCC(=O)N3CCc4ccccc43)nnc2-c2cccc(S(=O)(=O)N(C)C)c2)c1 | 3.51 µM |
| O=C(Nc1ccc(-c2cn3ccccc3n2)cc1)C1C=C2C=C(Br)C=CC2OC1=O (stereo unspecified) | 0.577 µM |
| N#Cc1ccc(NC(=O)Nc2cccn(Cc3c(F)cccc3Cl)c2=O)cc1 | 3.86 µM |
| Cc1ccc(Cn2c(=O)n(CCC(=O)NCCc3ccccc3)c(=O)c3ccccc32)cc1 | 11.7 µM |
| Cc1cccc(NC(=O)c2nn(C)c3ccccc3c2=O)c1 | 27.1 µM |
| CN1C(=O)COc2cc(-c3noc(C(=O)NC4CCCCCC4)n3)ccc21 | 39.3 µM |
| Clc1ccccc1CSc1nnc(C2CCCCC2)n1Cc1ccccc1 | 40.8 µM |
| Cc1ccc(-c2ncc(C(=O)NCc3cccc(C)c3)c(-c3ccncc3)n2)cc1 | > 50 µM (inactive) |
| CC(=O)c1sc(NC(=O)c2ccccc2-c2ccc(C(F)(F)F)cc2)nc1C | 17 µM |
| Cc1ccc(CNC(=O)c2cccc(N3C(=O)N4CCc5c([nH]c6ccccc56)[C@@]4(C)C3=O)c2)cc1 | 23.1 µM |
| O=C(Nc1ccc(Oc2cccc3cccnc23)cc1)c1cccs1 | > 50 µM (inactive) |
| Nc1c(C(=O)Nc2ccc3c(c2)OCO3)sc2nc(-c3cccnc3)ccc12 | 1.64 µM |
| CCCC(=O)Nc1nc2ccc(CCC(=O)NCc3ccc(F)cc3)cc2s1 | 25 µM |
| COc1cc(OC)cc(C(=O)Nc2cnc(-c3ccccc3)nc2)c1 | > 50 µM (inactive) |
| Cc1cc(O)c(=O)cc2c1C[C@H]1CC(C)(C)/C=C/C[C@@]3(C)Oc4cc(=O)c(O)cc(C)c4C[C@@H]3C[C@H](O)[C@]1(C)O2 | > 50 µM (inactive) |
| CCOC(=O)[C@@H]1[C@@H](c2ccccc2)CN2CCN(C(=O)c3cnccn3)C[C@H]12 | > 50 µM (inactive) |
| COc1ccc(NC(=O)c2cc(-c3cccnc3)n[nH]2)cc1Cl | 11.1 µM |
| COc1ccc(CCNC(=O)COc2ncnc3oc(C)c(C)c23)cc1OC | > 50 µM (inactive) |

| Compound | IC50 |
| --- | --- |
| O=c1[nH]c(C2CCN(S(=O)(=O)c3ccc(S(=O)(=O)NC4CCCCC4)cc3)CC2)nc2c1nnn2Cc1c(F)cccc1Cl | 22.1 µM |
| O=C(NCc1ccco1)c1ccc2c(c1)N(Cc1cccc(F)c1)C(=O)c1ccccc1S2 | > 50 µM (inactive) |
| O=C(NCCc1ccccc1)c1nnn(Cc2cccc(Cl)c2)c1-n1cccc1 | > 50 µM (inactive) |
| CSc1nc(SCC(N)=O)c2c3c(sc2n1)COC(C)(C)C3 | 36.9 µM |
| O=c1[nH]c2ccc(S(=O)(=O)Nc3ccc(O)c4ccccc34)cc2[nH]1 | 4.09 µM |
| O=C(c1cccnc1)N1CCC2(CC1)CC1(CO2)Nc2ccccc2-n2cccc21 (stereo unspecified) | 21.4 µM |
| Cc1ccccc1NC(=O)c1cc(S(=O)(=O)N2CCCCCC2)ccc1Cl | 35.2 µM |
| Fc1ccccc1Cc1nc(-c2ccc3nncn3c2)no1 | > 50 µM (inactive) |
| COc1cccc(S(=O)(=O)N2CCn3nc(C(C)(C)C)cc3C2)c1 | 38.5 µM |
| O=C(c1cn(-c2cccc(F)c2)nn1)N1CCc2ccccc2C1 | 18.5 µM |
| COc1ccc(-c2cc3c(=O)n(CC(=O)Nc4ccccc4Cl)ccn3n2)cc1 | 5.49 µM |
| Cc1ccc(Nc2nc(NCCc3ccccc3)nc3c2cnn3C)cc1 | 44.6 µM |
| CSc1ncccc1C(=O)OCc1ccc(Br)cc1 | > 50 µM (inactive) |
| CC(C)c1nc2sc3c(N(CCO)CCO)ncnc3c2c2c1COC(C)(C)C2 | > 50 µM (inactive) |
| CC(C)NC(=O)Cn1ccn2nc(-c3ccc(Cl)cc3)cc2c1=O | 3.85 µM |
| COc1ccc(/C=C/C(=O)N2CCc3ccccc32)cc1S(=O)(=O)N1CCOCC1 | > 50 µM (inactive) |
| O=C(NCc1ccc2c(c1)OCO2)c1[nH]nc2c1COc1ccccc1-2 | 1.84 µM |
| O=C(NCc1cccnc1)C1CCN(c2cnc(N3CCCCCC3)nc2)CC1 | > 50 µM (inactive) |
| Cn1ccnc1CN1C[C@H]2CCN(c3ncccn3)C[C@H]2C1 | > 50 µM (inactive) |
| CCOc1ccc(-n2c(SCC(=O)N3CC(=O)Nc4ccccc43)nnc2-c2ccc(OC)cc2)cc1 | 42.5 µM |
| Cc1cc(NC(=O)Cn2c(=O)n(CCCCC(=O)NCc3ccco3)c(=O)c3ccccc32)ccc1Br | 2.84 µM |
| O=C(CSc1nnc(-c2ccc3c(c2)OCO3)n1-c1ccccc1)OCC(=O)c1ccccc1 | > 50 µM (inactive) |
| CC(C)N1CC2CN(C(=O)c3ccccc3)CCN2Cc2ccccc21 (stereo unspecified) | > 50 µM (inactive) |
